Read-outs that look alike come from different tables or passages of the source. Numbered stars: 1 amine (or outer) side, 2 acyl side, 3 side chain; on linkers, the order of the positions; unused ones are H or OH. Square brackets hold non-standard residues; d marks the D form. Side chains are listed from the residue outwards. Peptide text beside a SMILES is read from it. * marks the point of attachment. C20 diacid = O=C(O)CCCCCCCCCCCCCCCCCCC(=O)*; γGlu = O=C(O)[C@H](CCC(=O)[*:2])N[*:1]; AEEA = NCCOCCOCC(=O)O; Aib = CC(C)(N)C(=O)O
Columns and labels:
[1] = Turbidity of crude library peptides (absorbance at 600 nm); assay type: physicochemical; details: Physical stability of peptides
In short: (§1)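 Crude peptides at 267 μM in 50 mM sodium acetate pH 4.0 or 50 mM sodium phosphate pH 7.0, pre-incubated 1-2 h at room temperature, then 4 μM final ThT added. Turbidity read first as A600. ThT fluorescence (ex 450/em 480 nm) read every 10 min for 72 h at 40° C, with 5 min shaking before each read; fibril formation = average emission.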

[2] = Fibril formation of crude library peptides (Thioflavin T); assay type: physicochemical; design: key: average ThT fluorescence emission at 480 nm (ex 450 nm), raw units; details: Physical stability of peptides
In short: as §1

GLP1R = GLP1R (Homo sapiens, UniProt P43220); experiment: hGLP1R potency, cAMP accumulation in CHO-K1 cells stably overexpressing hGLP1R; assay type: cell-based; design: host or cells: CHO-K1; details: for EC50: cAMP accumulation; for SCTR EC50/GLP1R EC50 ratio: cAMP accumulation in CHO-K1 cells; for Selectivity: SCTR EC50/GLP1R EC50 ratio
In short: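 Thawed cells go straight into buffer containing 0.5 mM IBMX and 0.05% casein, get graded compound doses for 30 min at room temperature, and are then assayed for accumulated cAMP by time-resolved FRET. Human GLP-1(7-36) serves as positive control; EC50 is derived by nonlinear regression.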

SCTR = SCTR (Homo sapiens, UniProt P47872); experiment: hSCTR potency, cAMP accumulation in CHO-K1 cells stably overexpressing hSCTR; assay type: cell-based; design: alternatively Euroscreen ES-712-AF; FAST-0161L; host or cells: CHO-K1; details: cAMP accumulation
In short: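 Read-out is TR-FRET cAMP detection, recorded one hour after reagent addition, in CHO-K1 cells stably overexpressing hSCTR. Cells in DPBS containing 0.05% casein and 0.5 mM IBMX are exposed to graded peptide doses for 30 min at room temperature, with human secretin as reference agonist.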

[3] = CHO-K1 cells overexpressing hGLP1R, read-out: hGLP1R pEC50 (converted)
[4] = selectivity for hGLP1R over hSCTR
[5] = CHO-K1 cells overexpressing hSCTR, read-out: hSCTR pEC50 (converted)
[6] = CHO-K1 cells overexpressing hGLP1R, read-out: pEC50 hGLPR1 (converted)
[7] = CHO-K1 cells overexpressing hSCTR, read-out: pEC50 hSCTR (converted)

Chain of GLP1R (P43220 24-463): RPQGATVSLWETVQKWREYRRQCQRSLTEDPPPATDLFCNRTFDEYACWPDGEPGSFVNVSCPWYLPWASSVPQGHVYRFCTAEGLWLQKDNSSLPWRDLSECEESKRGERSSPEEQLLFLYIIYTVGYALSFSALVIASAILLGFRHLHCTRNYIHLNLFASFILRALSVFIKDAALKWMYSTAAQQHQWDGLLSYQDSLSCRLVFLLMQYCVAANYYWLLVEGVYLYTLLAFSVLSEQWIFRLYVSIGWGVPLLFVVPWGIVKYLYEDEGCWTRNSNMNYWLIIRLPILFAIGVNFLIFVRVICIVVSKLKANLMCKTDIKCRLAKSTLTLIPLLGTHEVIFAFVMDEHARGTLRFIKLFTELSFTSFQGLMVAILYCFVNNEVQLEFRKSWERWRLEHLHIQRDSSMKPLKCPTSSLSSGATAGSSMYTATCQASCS
Chain of SCTR (P47872 23-440): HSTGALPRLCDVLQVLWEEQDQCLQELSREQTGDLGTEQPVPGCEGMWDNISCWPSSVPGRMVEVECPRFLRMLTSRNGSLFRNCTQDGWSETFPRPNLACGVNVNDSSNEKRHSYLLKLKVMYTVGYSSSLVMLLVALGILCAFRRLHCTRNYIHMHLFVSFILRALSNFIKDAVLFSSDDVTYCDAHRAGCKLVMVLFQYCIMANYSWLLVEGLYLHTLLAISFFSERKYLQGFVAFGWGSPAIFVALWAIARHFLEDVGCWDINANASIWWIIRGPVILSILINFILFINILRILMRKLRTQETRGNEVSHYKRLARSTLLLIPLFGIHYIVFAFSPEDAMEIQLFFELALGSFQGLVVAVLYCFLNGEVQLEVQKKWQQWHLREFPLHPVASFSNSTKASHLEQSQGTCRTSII

| SMILES | Turbidity (pH 7) [1] | Fibril formation [2] | EC50 (GLP1R; [3]) [nM] | SCTR EC50/GLP1R EC50 ratio (GLP1R; [4]) | EC50 (SCTR; [5]) [nM] | EC50 (GLP1R; CHO-K1 cells stably overexpressing hGLP1R, read-out: hGLP1R potency (pEC50) (converted)) [nM] | SCTR EC50/GLP1R EC50 ratio (GLP1R; selectivity ratio, hSCTR vs hGLP1R) | EC50 (SCTR; CHO-K1 cells stably overexpressing hSCTR, read-out: hSCTR potency (pEC50) (converted)) [nM] | Selectivity (GLP1R) | EC50 (GLP1R; [6]) [nM] | EC50 (SCTR; [7]) [nM] |
| --- | --- | --- | --- | --- | --- | --- | --- | --- | --- | --- | --- |
| CC(C)C[C@H](NC(=O)[C@H](Cc1ccccc1)NC(=O)[C@H](CCCNC(=N)N)NC(=O)[C@H](CCC(N)=O)NC(=O)[C@H](CC(C)C)NC(=O)C(C)(C)NC(=O)[C@H](C)NC(=O)[C@H](CCC(=O)O)NC(=O)[C@H](CCC(=O)O)NC(=O)[C@H](CCCCNC(=O)COCCOCCNC(=O)COCCOCCNC(=O)CC[C@H](NC(=O)CCCCCCCCCCCCCCCCCCC(=O)O)C(=O)O)NC(=O)[C@H](CC(C)C)NC(=O)[C@H](Cc1ccc(O)cc1)NC(=O)[C@H](CO)NC(=O)[C@@H](NC(=O)[C@H](CC(=O)O)NC(=O)[C@H](CO)NC(=O)[C@@H](NC(=O)[C@H](Cc1ccccc1)NC(=O)[C@@H](NC(=O)CNC(=O)[C@H](CCC(=O)O)NC(=O)C(C)(C)NC(=O)[C@@H](N)Cc1c[nH]cn1)[C@@H](C)O)[C@@H](C)O)C(C)C)C(=O)N[C@@H](CCC(=O)O)C(=O)N[C@@H](Cc1c[nH]c2ccccc12)C(=O)N[C@@H](CC(C)C)C(=O)N[C@H](C(N)=O)C(C)C [compound 169] (H-H[Aib]EGTFTSDVSYLK([AEEA-AEEA-γGlu-C20 diacid])EEA[Aib]LQRFLEWLV-NH2) | 0.08 | 3552 | 0.0398 | 14974 | 501 | – | – | – | – | – | – |
| CC[C@H](C)[C@H](NC(=O)[C@H](Cc1ccccc1)NC(=O)[C@H](CCCNC(=N)N)NC(=O)[C@H](CCC(N)=O)NC(=O)[C@H](CC(C)C)NC(=O)[C@H](C)NC(=O)[C@H](C)NC(=O)CNC(=O)[C@H](CCC(=O)O)NC(=O)[C@H](CC(C)C)NC(=O)[C@H](CC(C)C)NC(=O)[C@H](Cc1ccc(O)cc1)NC(=O)[C@H](CO)NC(=O)[C@@H](NC(=O)[C@H](CC(=O)O)NC(=O)[C@H](CO)NC(=O)[C@@H](NC(=O)[C@H](Cc1ccccc1)NC(=O)[C@@H](NC(=O)CNC(=O)[C@H](CCC(=O)O)NC(=O)C(C)(C)NC(=O)[C@@H](N)Cc1c[nH]cn1)[C@@H](C)O)[C@@H](C)O)[C@@H](C)CC)C(=O)N[C@@H](CCC(N)=O)C(=O)N[C@@H](Cc1c[nH]c2ccccc12)C(=O)N[C@@H](CC(C)C)C(=O)N[C@H](C(N)=O)C(C)C [compound 112] (H-H[Aib]EGTFTSDISYLLEGAALQRFIQWLV-NH2) | 0.29 | 93630 | 0.0158 | 164097 | 2510 | – | – | – | – | – | – |
| CC(C)C[C@H](NC(=O)[C@H](Cc1ccccc1)NC(=O)[C@H](CCCNC(=N)N)NC(=O)[C@H](CCC(N)=O)NC(=O)[C@@H](NC(=O)[C@H](C)NC(=O)[C@H](C)NC(=O)[C@H](CCC(=O)O)NC(=O)[C@H](CCC(=O)O)NC(=O)[C@H](CCCCNC(=O)COCCOCCNC(=O)COCCOCCNC(=O)CC[C@H](NC(=O)CCCCCCCCCCCCCCCCCCC(=O)O)C(=O)O)NC(=O)[C@H](CC(C)C)NC(=O)[C@@H](NC(=O)[C@H](CO)NC(=O)[C@@H](NC(=O)[C@H](CC(=O)O)NC(=O)[C@H](CO)NC(=O)[C@@H](NC(=O)[C@H](Cc1ccccc1)NC(=O)[C@@H](NC(=O)CNC(=O)[C@H](CCC(=O)O)NC(=O)C(C)(C)NC(=O)[C@@H](N)Cc1c[nH]cn1)[C@@H](C)O)[C@@H](C)O)C(C)C)C(C)C)[C@@H](C)O)C(=O)N[C@@H](CCC(=O)O)C(=O)N[C@@H](Cc1c[nH]cn1)C(=O)N[C@@H](CC(C)C)C(=O)N[C@H](C(N)=O)C(C)C [compound 53] (H-H[Aib]EGTFTSDVSVLK([AEEA-AEEA-γGlu-C20 diacid])EEAATQRFLEHLV-NH2) | 0.08 | 5164 | – | – | – | – | – | – | 10988 | 0.00501 | 63.1 |
| CC(C)C[C@H](NC(=O)[C@H](Cc1ccccc1)NC(=O)[C@H](CCCNC(=N)N)NC(=O)[C@H](CCC(N)=O)NC(=O)[C@@H](NC(=O)[C@H](C)NC(=O)[C@H](C)NC(=O)[C@H](CCC(=O)O)NC(=O)[C@H](CCC(=O)O)NC(=O)[C@H](CCCCNC(=O)COCCOCCNC(=O)COCCOCCNC(=O)CC[C@H](NC(=O)CCCCCCCCCCCCCCCCCCC(=O)O)C(=O)O)NC(=O)[C@H](CC(C)C)NC(=O)[C@H](CCC(=O)O)NC(=O)[C@H](CO)NC(=O)[C@@H](NC(=O)[C@H](CC(=O)O)NC(=O)[C@H](CO)NC(=O)[C@@H](NC(=O)[C@H](Cc1ccccc1)NC(=O)[C@@H](NC(=O)CNC(=O)[C@H](CCC(=O)O)NC(=O)C(C)(C)NC(=O)[C@@H](N)Cc1c[nH]cn1)[C@@H](C)O)[C@@H](C)O)C(C)C)[C@@H](C)O)C(=O)N[C@@H](CCC(=O)O)C(=O)N[C@@H](Cc1c[nH]cn1)C(=O)N[C@@H](CC(C)C)C(=O)N[C@H](C(N)=O)C(C)C [compound 55] (H-H[Aib]EGTFTSDVSELK([AEEA-AEEA-γGlu-C20 diacid])EEAATQRFLEHLV-NH2) | 0.09 | 6162 | – | – | – | – | – | – | 16315 | 0.01 | 158 |

Results, then the compound that gave them:

| Turbidity (pH 7) [1] | Fibril formation [2] | EC50 (GLP1R; [3]) [nM] | SCTR EC50/GLP1R EC50 ratio (GLP1R; [4]) | EC50 (SCTR; [5]) [nM] | EC50 (GLP1R; CHO-K1 cells stably overexpressing hGLP1R, read-out: hGLP1R potency (pEC50) (converted)) [nM] | SCTR EC50/GLP1R EC50 ratio (GLP1R; selectivity ratio, hSCTR vs hGLP1R) | EC50 (SCTR; CHO-K1 cells stably overexpressing hSCTR, read-out: hSCTR potency (pEC50) (converted)) [nM] | Selectivity (GLP1R) | EC50 (GLP1R; [6]) [nM] | EC50 (SCTR; [7]) [nM] | SMILES |
| --- | --- | --- | --- | --- | --- | --- | --- | --- | --- | --- | --- |
| 0.09 | 4754 | 0.794 | 33562 | 25100 | – | – | – | – | – | – | CC(C)C[C@H](NC(=O)[C@H](Cc1ccccc1)NC(=O)[C@H](CCCNC(=N)N)NC(=O)[C@H](CCC(N)=O)NC(=O)[C@H](CC(C)C)NC(=O)C(C)(C)NC(=O)[C@H](C)NC(=O)[C@H](CCC(=O)O)NC(=O)[C@H](CCC(=O)O)NC(=O)[C@H](CCCCNC(=O)COCCOCCNC(=O)COCCOCCNC(=O)CC[C@H](NC(=O)CCCCCCCCCCCCCCCCCCC(=O)O)C(=O)O)NC(=O)[C@H](CC(C)C)NC(=O)[C@H](Cc1ccc(O)cc1)NC(=O)[C@H](CO)NC(=O)[C@@H](NC(=O)[C@H](CC(=O)O)NC(=O)[C@H](CO)NC(=O)[C@@H](NC(=O)[C@H](Cc1ccccc1)NC(=O)[C@@H](NC(=O)CNC(=O)[C@H](Cc1c[nH]c2ccccc12)NC(=O)C(C)(C)NC(=O)[C@@H](N)Cc1c[nH]cn1)[C@@H](C)O)[C@@H](C)O)C(C)C)C(=O)N[C@@H](CCC(=O)O)C(=O)N[C@@H](Cc1c[nH]cn1)C(=O)N[C@@H](CC(C)C)C(=O)N[C@H](C(N)=O)C(C)C [compound 160] (H-H[Aib]WGTFTSDVSYLK([AEEA-AEEA-γGlu-C20 diacid])EEA[Aib]LQRFLEHLV-NH2) |
| 0.37 | 94029 | – | – | – | 0.0158 | 10195 | 158 | – | – | – | CC[C@H](C)[C@H](NC(=O)[C@H](Cc1ccccc1)NC(=O)[C@H](CCCNC(=N)N)NC(=O)[C@H](CCC(N)=O)NC(=O)[C@H](CC(C)C)NC(=O)[C@H](C)NC(=O)[C@H](C)NC(=O)CNC(=O)[C@H](CCC(=O)O)NC(=O)[C@H](CC(C)C)NC(=O)[C@H](CC(C)C)NC(=O)[C@H](Cc1ccc(O)cc1)NC(=O)[C@H](CO)NC(=O)[C@H](Cc1c[nH]c2ccccc12)NC(=O)[C@H](CC(=O)O)NC(=O)[C@H](CO)NC(=O)[C@@H](NC(=O)[C@H](Cc1ccccc1)NC(=O)[C@@H](NC(=O)CNC(=O)[C@H](CCC(=O)O)NC(=O)C(C)(C)NC(=O)[C@@H](N)Cc1c[nH]cn1)[C@@H](C)O)[C@@H](C)O)C(=O)N[C@@H](CCC(N)=O)C(=O)N[C@@H](Cc1c[nH]c2ccccc12)C(=O)N[C@@H](CC(C)C)C(=O)N[C@H](C(N)=O)C(C)C [compound 189] (H-H[Aib]EGTFTSDWSYLLEGAALQRFIQWLV-NH2) |
| 0.72 | 20603 | 0.0794 | 14555 | 1260 | – | – | – | – | – | – | CC[C@H](C)[C@H](NC(=O)[C@H](Cc1ccccc1)NC(=O)[C@H](CCCNC(=N)N)NC(=O)[C@H](CCC(N)=O)NC(=O)[C@H](CC(C)C)NC(=O)[C@H](C)NC(=O)[C@H](C)NC(=O)CNC(=O)[C@H](CCC(=O)O)NC(=O)[C@H](CC(C)C)NC(=O)[C@H](CC(C)C)NC(=O)[C@H](Cc1c[nH]c2ccccc12)NC(=O)[C@H](CO)NC(=O)C(C)(C)NC(=O)[C@H](CC(=O)O)NC(=O)[C@H](CO)NC(=O)[C@@H](NC(=O)[C@H](Cc1ccccc1)NC(=O)[C@@H](NC(=O)CNC(=O)[C@H](CCC(=O)O)NC(=O)C(C)(C)NC(=O)[C@@H](N)Cc1c[nH]cn1)[C@@H](C)O)[C@@H](C)O)C(=O)N[C@@H](CCC(N)=O)C(=O)N[C@@H](Cc1c[nH]c2ccccc12)C(=O)N[C@@H](CC(C)C)C(=O)N[C@H](C(N)=O)C(C)C [compound 108] (H-H[Aib]EGTFTSD[Aib]SWLLEGAALQRFIQWLV-NH2) |

Source: patent US20260201008A1, “SECRETIN-DERIVED GLP1R SELECTIVE AGONISTS” (GUBRA A/S, priority 2023, published 2026)
